What all share (type): functional
Assay [1] deals with HL-60. Description: Synergistic antiproliferative activity against human HL-60 cells assessed as combination index at 100 uM in presence of 0.1 uM doxorubicin by MTT assay. In general terms: Tetrazolium assays rely on reduction of a dye to a coloured formazan, in cell work by metabolically active cells.
The test system of assay [2] is HepG2. Briefly: Synergistic antiproliferative activity against Doxorubicin-resistant human HepG2 cells assessed as combination index at 6.25 uM in presence of 0.1 uM doxorubicin by MTT assay.
Assay [3] concerns HepG2. Briefly: Synergistic antiproliferative activity against Doxorubicin-resistant human HepG2 cells assessed as combination index at 3.1 uM in presence of 0.1 uM doxorubicin by MTT assay.
The test system of assay [4] is HL-60. Description: Synergistic antitumor activity against human HL-60 cells xenografted in BALB/c nude mouse assessed as tumor volume at 100 mg/kg, po qd for 16 days co-administered with doxorubicin (reference value: 32.2%). The following applies: HL-60, 384 h, time 16 day. Background: In xenograft studies the graft and the host belong to different species.
In another assay the test system is HCT-116. Description: Induction of cell cycle arrest in human HCT-116 cells assessed as increase in accumulation of cells at […] at 1 uM incubated for 24 hrs in presence of 100 nM doxorubicin by PI staining based flow cytometry. For orientation: In flow cytometry, cells or beads pass a laser one at a time.

SMILES strings stand for the structures. Activity calls are given as the source filed them. No cut-off for these calls is given here.

A word on the inhibition in vivo: it is the drop in the measured response relative to a control, in per cent. For the molecule `Cc1cc2ncnn2cc1Nc1ncc2c(n1)N(C1CCOCC1)CC(=O)N2C`, the CI in the assay on HL-60 [1] is reported as 0.551; in the assay with HepG2 [2], 0.0268; with HepG2 [3] it was 0.02104. Moreover, the inhibition in vivo at 100 mg/kg in the assay with HL-60 [4] amounted to 62.4%. Further, the result in the assay on HCT-116 was Active.
